pIC50: −log10 of the molar value.
Columns and labels:
[1] = system: hGYS1 enzyme / glycogen synthesis in HeLa cells; test: GYS1 cell based assay (glycogen synthesis, Glucose-glo); parameters: species or system human; conditions: Homo sapiens, HeLa, 24 h, 24 h incubation, 20 mM glucose, geometric mean of at least 2 runs
Excerpt: The GYS1 cell based assay is a bioluminescent assay that quantifies the glucose resulting from glycogen digestion; the quantified glucose is an indirect measure of GYS1 glycogen synthesis. Newly synthesized glycogen is digested using Glucoamylase; the resulting glucose is quantified by using the Glucose-glo assay kit from Promega. Glucose-glo works by coupling glucose oxidation and NADH production with a bioluminescent system that is activated with NADH. Glucose is oxidized by Glucose dehydrogenase and the reaction reduces NAD+ to NADH; NADH activates Reductase which reduces a pro-luciferin Reductase Substrate to luciferin. Luciferin is detected in a luciferase reaction using Ultra-Glo rLuciferase and ATP, and the luminesce produced is proportional to the glucose in the sample. The luminescence is measured as a single point read in a plate reader.
Compounds that inhibit the hGYS1 enzyme and, subsequently, the glycogen synthesis in cells, were tested using assay ready plates (white, clear bottom 384 well plates) in a final DMSO reaction volume of 1% DMSO. Compounds in the assay ready plates were mixed with media with no additives, except for 20 mM glucose prior to cell addition. HeLa cells were starved in media with no additives, except for 1× Glutamax for 24 h. Starved HeLa cells were plated, in a 1:1 ratio to the media in the assay ready plate and incubated for 24 h at 37° C. and 5% C02. Cells were washed in 1×PBS buffer and lysed in lysis buffer containing 50% 1×PBS and 25% 0.3 N HCl of the final volume in the well or reaction volume; cells were incubated with lysis buffer for 10 minutes and quenched with the remaining 25% of the reaction volume that consisted of 450 mM Tris pH 8.0. Lysates were mixed in a 1:1 ratio with Glucoamylase in 100 mM Sodium Acetate buffer, pH 5.3; the mixture was incubated for 1 h at 37° C. The digested lysate was mixed in a 1:1 ratio with Glucose-glo detection mixture as per vendor recommendations (Luciferase detection buffer, Reductase, Reductase substrate, Glucose dehydrogenase, and NAD) in read-out plates (solid white 384-well plates) and incubated for 1 h at RT. The plates were read using a plate reader with luminescence capabilities. Each compound concentration Relative Luminescence Unit (RLU) was averaged and normalized to the average RLU of the positive and negative controls to obtain a percentage inhibition. The normalized data vs. concentration was plotted; to determine the half-maximal concentration (IC50), the Levenberg-Marquardt algorithm was used to fit a Hill equation to the dose response data.
The results are shown in Table 3 below, which reports the IC50 of each compound. Unless otherwise specified, IC50 values are reported as the geometric mean of at least 2 assay runs on separate days. As shown in the table below, the compounds of the present invention are potent inhibitors of human GYS1. Unless otherwise specified, IC50 values are reported as the geometric mean of at least two assay runs on separate days. Each run represents the average of a technical replicate, where each compound was assayed twice in the same plate. A superscript “#” symbol in Table 3 indicates results from a single assay run.

[2] = target: hGYS2 enzyme (recombinant hGYS2/GN1 protein) (Homo sapiens (Human), UniProt P54840); test: GYS2 coupled enzyme assay (PK/LDH); type: biochemical; conditions: geometric mean of at least 2 assay runs on separate days, read-out: Avg_IC50
Chain of hGYS2 enzyme (recombinant hGYS2/GN1 protein) (P54840 whole entry): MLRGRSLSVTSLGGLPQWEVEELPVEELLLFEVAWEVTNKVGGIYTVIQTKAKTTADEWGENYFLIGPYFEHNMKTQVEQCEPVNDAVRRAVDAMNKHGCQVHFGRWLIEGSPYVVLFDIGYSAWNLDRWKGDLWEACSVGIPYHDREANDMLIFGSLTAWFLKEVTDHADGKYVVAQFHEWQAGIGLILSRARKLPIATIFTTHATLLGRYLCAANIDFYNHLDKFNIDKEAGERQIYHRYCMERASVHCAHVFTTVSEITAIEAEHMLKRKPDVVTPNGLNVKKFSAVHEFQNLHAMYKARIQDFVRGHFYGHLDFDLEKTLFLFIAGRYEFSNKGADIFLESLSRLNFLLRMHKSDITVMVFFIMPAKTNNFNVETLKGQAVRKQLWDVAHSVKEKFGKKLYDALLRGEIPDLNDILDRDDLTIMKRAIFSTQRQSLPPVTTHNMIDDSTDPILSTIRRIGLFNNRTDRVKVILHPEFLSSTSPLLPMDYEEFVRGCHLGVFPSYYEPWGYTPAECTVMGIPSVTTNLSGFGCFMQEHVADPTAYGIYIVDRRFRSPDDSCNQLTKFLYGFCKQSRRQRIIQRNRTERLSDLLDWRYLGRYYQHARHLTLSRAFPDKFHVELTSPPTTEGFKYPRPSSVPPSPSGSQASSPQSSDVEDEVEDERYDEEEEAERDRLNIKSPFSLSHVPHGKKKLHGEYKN
Chain of hGYS2 enzyme (recombinant hGYS2/GN1 protein) (P46976 whole entry partner): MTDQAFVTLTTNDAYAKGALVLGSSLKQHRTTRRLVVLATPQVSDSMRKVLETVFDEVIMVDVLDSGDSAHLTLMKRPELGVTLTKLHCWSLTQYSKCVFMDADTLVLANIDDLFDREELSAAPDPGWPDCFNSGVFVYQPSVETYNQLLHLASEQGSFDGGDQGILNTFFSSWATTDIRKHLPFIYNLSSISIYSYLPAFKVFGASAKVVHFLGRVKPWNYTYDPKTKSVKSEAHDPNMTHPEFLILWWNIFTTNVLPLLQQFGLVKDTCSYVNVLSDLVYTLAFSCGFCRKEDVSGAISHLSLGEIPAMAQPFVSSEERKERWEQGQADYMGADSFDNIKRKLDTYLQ
In short: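 hGYS2/GN1 200 nM; UDP-Glc 2 mM; glycogen 0.2%; G6P 2 mM; PEP 2 mM, NADH 0.6 mM, PK/LDH 20 U/mL. 50 mM Tris pH 7.5, MgCl2, KCl, BSA, TCEP, 2.5% DMSO. Kinetic A340, 10 min. IC50 = geomean of ≥2 runs.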

[3] = target: hGYS1 enzyme (recombinant hGYS1/GN1 protein) (Homo sapiens (Human), UniProt P13807); test: GYS1 coupled enzyme assay (PK/LDH); type: biochemical; conditions: hGYS1/GN1 50 nM, UDP-Glucose 0.8 mM, G6P 1 mM; geometric mean of at least 2 runs
Chain of hGYS1 enzyme (recombinant hGYS1/GN1 protein) (P13807 whole entry): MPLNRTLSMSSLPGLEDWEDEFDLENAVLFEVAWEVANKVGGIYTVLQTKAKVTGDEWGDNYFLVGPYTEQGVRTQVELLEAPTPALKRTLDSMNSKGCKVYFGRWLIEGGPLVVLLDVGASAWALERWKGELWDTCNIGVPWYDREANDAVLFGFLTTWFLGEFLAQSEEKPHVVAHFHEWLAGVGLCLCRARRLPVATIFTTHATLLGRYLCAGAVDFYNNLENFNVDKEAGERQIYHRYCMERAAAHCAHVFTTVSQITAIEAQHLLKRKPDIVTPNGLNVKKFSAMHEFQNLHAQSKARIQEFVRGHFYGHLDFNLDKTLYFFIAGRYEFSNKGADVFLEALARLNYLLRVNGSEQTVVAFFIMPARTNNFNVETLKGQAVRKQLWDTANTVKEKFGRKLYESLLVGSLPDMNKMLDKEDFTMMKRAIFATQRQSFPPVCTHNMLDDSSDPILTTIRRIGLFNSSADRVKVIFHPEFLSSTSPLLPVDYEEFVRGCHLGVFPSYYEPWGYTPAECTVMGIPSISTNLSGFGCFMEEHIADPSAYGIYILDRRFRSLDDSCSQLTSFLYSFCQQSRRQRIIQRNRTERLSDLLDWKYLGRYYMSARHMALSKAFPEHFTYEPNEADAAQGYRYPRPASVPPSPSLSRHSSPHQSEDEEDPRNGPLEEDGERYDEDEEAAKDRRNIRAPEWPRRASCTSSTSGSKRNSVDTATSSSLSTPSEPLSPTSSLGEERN
Chain of hGYS1 enzyme (recombinant hGYS1/GN1 protein) (P46976 whole entry partner): as the sequence (P46976 whole entry partner) above

Compound	pIC50 [1]	pIC50 [2]	pIC50 [3]
CC(=O)N1C[C@H](F)C[C@H]1C(=O)NC(c1cccc(-c2cc(C)nn2C)c1)c1ccc(C(C)C)c(F)n1 (single isomer, unassigned) [Compound 697, (2S,4R)-1-acetyl-N-[(S) or (R)-[3-(1,3-dimethyl-1H-pyrazol-5-yl)phenyl][6-fluoro-5-(propan-2-yl)pyridin-2-yl]methyl]-4-fluoropyrrolidine-2-carboxamide]	5.04		
NC(=O)NCC(=O)N1C[C@H](F)C[C@H]1C(=O)N[C@@H](c1ccccc1)c1ccc(C2CC2)c(F)n1 [Compound 302, (2S,4R)-1-[2-(carbamoylamino)acetyl]-N-[(S)-(5-cyclopropyl-6-fluoropyridin-2-yl)(phenyl)methyl]-4-fluoropyrrolidine-2-carboxamide]	5.91		
O=C(N[C@@H](c1ccccc1)c1ccc(C2CC2)c(F)n1)[C@@H]1C[C@@H](F)CN1C(=O)CNC(=O)N1CCC1 [Compound 305, (2S,4R)-1-{2-[(azetidine-1-carbonyl)amino]acetyl}-N-[(S)-(5-cyclopropyl-6-fluoropyridin-2-yl)(phenyl)methyl]-4-fluoropyrrolidine-2-carboxamide]	6.20		
O=C(N[C@@H](c1ccccc1)c1ccc(C2CC2)c(F)c1)[C@@H]1C[C@@H](F)CN1C(=O)Cc1cccc2ncccc12 [Compound 443, (2S,4R)-N-[(S)-(4-cyclopropyl-3-fluorophenyl)(phenyl)methyl]-4-fluoro-1-[2-(quinolin-5-yl)acetyl]pyrrolidine-2-carboxamide]		< 4.00	7.55
COc1ccccc1[C@H](NC(=O)[C@@H]1CCCN1C(C)=O)c1ccc(C(C)C)cc1 [Compound 639, (2S)-1-acetyl-N-[(R)-(2-methoxyphenyl)[4-(propan-2-yl)phenyl]methyl] pyrrolidine-2-carboxamide]		< 4.00	6.04
CC(=O)N1CCC[C@H]1C(=O)N[C@H](c1ccc(C(C)C)cc1)c1ccccc1C [Compound 640, (2S)-1-acetyl-N-[(R)-(2-methylphenyl)[4-(propan-2-yl)phenyl]methyl] pyrrolidine-2-carboxamide]		< 4.00	5.84
CC(C)c1ccc([C@@H](NC(=O)[C@@H]2CCCN2C(=O)Cc2cnn[nH]2)c2cccc3[nH]c(=O)[nH]c23)cc1 [Compound 644, (2S)-N-[(R)-(2-oxo-2,3-dihydro-1H-1,3-benzodiazol-4-yl)[4-(propan-2-yl)phenyl]methyl]-1-[2-(1H-1,2,3-triazol-5-yl)acetyl]pyrrolidine-2-carboxamide]		< 4.00	6.56
O=C(N[C@H](c1ccccc1)c1ccc(C2CC2)c(F)n1)[C@@H]1C[C@@H](F)CN1C(=O)Cn1cnc2ccccc21 [Compound 716, (2S,4R)-1-[2-(1H-1,3-benzodiazol-1-yl)acetyl]-N-[(R)-(5-cyclopropyl-6-fluoropyridin-2-yl)(phenyl)methyl]-4-fluoropyrrolidine-2-carboxamide]	4.65		
CC(C)c1ccc([C@@H](NC(=O)[C@@H]2C[C@@H](F)CN2C(=O)Cn2cc(N3CCC3)nn2)c2ccccc2)nc1F [Compound 787, (2S,4R)-1-{2-[4-(azetidin-1-yl)-1H-1,2,3-triazol-1-yl]acetyl}-4-fluoro-N-[(S)-[6-fluoro-5-(propan-2-yl)pyridin-2-yl](phenyl)methyl] pyrrolidine-2-carboxamide]	6.89		
(2S,4R)-N-[(S)-(4- cyclopropyl-3- fluorophenyl)(phenyl) methyl]-4-fluoro-1- [2-(1H-1,2,3-triazol-5- yl)acetyl]pyrrolidine- 2-carboxamide [Compound 439]		< 4.00	6.73

Further lines, results first:

pIC50 [1]	pIC50 [2]	pIC50 [3]	Compound
5.48			COc1cccc(C(NC(=O)[C@@H]2C[C@@H](F)CN2C(C)=O)c2ccc(C(C)C)c(F)n2)c1 (single isomer, unassigned) [Compound 654, (2S,4R)-1-acetyl-4-fluoro-N-[(S) or (R)-[6-fluoro-5-(propan-2-yl)pyridin-2-yl](3-methoxyphenyl)methyl]pyrrolidine-2-carboxamide]
6.68			CC(C)c1ccc([C@@H](NC(=O)[C@@H]2C[C@@H](F)CN2C(=O)CNC(=O)N(C)C)c2ccccc2)cc1F [Compound 361, (2S,4R)-1-{2-[(dimethylcarbamoyl)amino]acetyl}-4-fluoro-N-[(S)-[3-fluoro-4-(propan-2-yl)phenyl](phenyl)methyl] pyrrolidine-2-carboxamide]
	< 4.00	7.36	Cc1n[nH]c(C)c1CC(=O)N1C[C@H](F)C[C@H]1C(=O)N[C@@H](c1ccccc1)c1ccc(C2CC2)c(F)c1 [Compound 444, (2S,4R)-N-[(S)-(4-cyclopropyl-3-fluorophenyl)(phenyl)methyl]-1-[2-(3,5-dimethyl-1H-pyrazol-4-yl)acetyl]-4-fluoropyrrolidine-2-carboxamide]
	< 4.00	6.89	CC(C)c1ccc([C@@H](NC(=O)[C@@H]2C[C@@H](F)CN2C(=O)Cc2cnn[nH]2)c2cccnc2N)cc1F [Compound 613, (2S,4R)-1-(2-(1H-1,2,3-triazol-5-yl)acetyl)-N—((R)-(2-aminopyridin-3-yl)(3-fluoro-4-isopropylphenyl)methyl)-4-fluoropyrrolidine-2-carboxamide]
	< 4.00	7.00	CC(C)c1ccc([C@@H](NC(=O)[C@@H]2C[C@@H](F)CN2C(=O)Cc2cnn[nH]2)c2cccc(F)c2)cc1F [Compound 645, (2S,4R)-4-fluoro-N-[(S)-[3-fluoro-4-(propan-2-yl)phenyl](3-fluoropheny)methyl]-1-[2-(1H-1,2,3-triazol-5-yl)acetyl]pyrrolidine-2-carboxamide]
	< 4.00	7.32	CC(C)c1ccc([C@@H](NC(=O)[C@@H]2C[C@@H](F)CN2C(=O)Cc2cnn[nH]2)c2ccc(F)cc2)cc1F [Compound 646, (2S,4R)-4-fluoro-N-[(S)-[3-fluoro-4-(propan-2-yl)phenyl](4-fluorophenyl)methyl]-1-[2-(1H-1,2,3-triazol-5-yl)acetyl]pyrrolidine-2-carboxamide]
	< 4.00	6.94	O=C(N[C@@H](c1ccccc1)c1ccc(C2CC2)c(Cl)c1)[C@@H]1C[C@@H](F)CN1C(=O)Cc1cnn[nH]1 [Compound 664, (2S,4R)-N-[(S)-(3-chloro-4-cyclopropylphenyl) (phenyl)methyl]-4-fluoro-1-[2-(1H-1,2,3-triazol-5-yl)acetyl]pyrrolidine-2-carboxamide]
	< 4.00	7.00	Cc1cc([C@@H](NC(=O)[C@@H]2C[C@@H](F)CN2C(=O)Cc2cnn[nH]2)c2ccccc2)ccc1C1CC1 [Compound 665, (2S,4R)-N-[(S)-(4-cyclopropyl-3-methylphenyl) (phenyl)methyl]-4-fluoro-1-[2-(1H-1,2,3-triazol-5-yl)acetyl]pyrrolidine-2-carboxamide]
	< 4.00	6.07	CC(C)c1ccc([C@H](NC(=O)[C@@H]2C[C@@H](F)CN2C(=O)Cc2cnn[nH]2)c2ccccc2)cc1Cl [Compound 671, (2S,4R)-N-[(R)-[3-chloro-4-(propan-2-yl)phenyl](phenyl)methyl]-4-fluoro-1-[2-(1H-1,2,3-triazol-5-yl)acetyl]pyrrolidine-2-carboxamide]
	< 4.00	7.33	CC(=O)N[C@@H](CC(N)=O)C(=O)N1C[C@H](F)C[C@H]1C(=O)N[C@@H](c1ccccc1)c1ccc(C(C)C)c(F)c1 [Compound 765, (2S,4R)-1-[(2S)-3-carbamoyl-2-acetamidopropanoyl]-4-fluoro-N-[(S)-[3-fluoro-4-(propan-2-yl)phenyl](phenyl)methyl] pyrrolidine-2-carboxamide]

Reference: patent US11814367B2, “Inhibitors of glycogen synthase 1 (GYS1) and methods of use thereof” (Maze Therapeutics, Inc., priority 2021, dated 2023)
